Experimental data published in patent US10119122B2, “Differentiation and expansion of endothelial cells from pluripotent stem cells and the in vitro formation of vasculature like structures” (Academisch Ziekenhuis Leiden, priority 2013, dated 2018).

Test system: hPSCs
Assay: Monolayer endothelial differentiation of hPSCs in defined medium, flow cytometry at day 10
Assay type: cell-based, human
Settings: VEGF together with SB-431542 5 μM from day 3, versus VEGF only; average over several cell lines
From the text: hiPSC lines were generated from Fib or BOECs using conditional lentiviral vectors containing the four transcription factors oct4, c-myc, Klf4 and Sox2, and characterized as described previously (Dambrot et al., 2013; Freund et al., 2008; Orlova et al., manuscript in preparation). hiPSCs and hESC (line HES-NL4; (van de Stolpe et al., 2005)) were routinely maintained on growth factor reduced MATRIGEL®-(BD, 354230) coated plates in mTeSR media (StemCell Technologies, 05850) and passaged mechanically. Differentiation was induced three days after passaging colonies by replacing mTeSR medium with the differentiation media based on BPEL (without PVA) (Ng et al., 2008) with timed addition of the following growth factors: 25 ng/ml ActivinA (Miltenyi, 130-095-547), 30 ng/ml BMP4 (Miltenyi, 130-095-549), VEGF165 (R&D Systems, 293-VE) and small molecule inhibitor CHIR99021 (Tocris, 4423). At day 3 and day 7 of differentiation, the media was refreshed with BPEL containing VEGF and 5 μM SB43152 (Tocris, 1614) only.
Cells were dissociated with TrypLE Select and washed once with the FACs buffer with the 10% FBS, followed by the single wash with the FACs buffer. […] In some experiment samples were analyzed with the MACSQuant VYB (Miltenyi). […]

NC(=O)c1ccc(-c2nc(-c3ccc4c(c3)OCO4)c(-c3ccccn3)[nH]2)cc1 [SB431542, reference compound]
increase in the yield of ECs: 30%
